# Measurements from US10962508B2, “Ultrasound-based method and related system to evaluate hemostatic function of whole blood” (University of Virginia Patent Foundation, priority 2009, dated 2021).
# Entries after “also recorded” stand apart in the source; their conditions may differ.
# Columns and labels:
# Type in all cases: cell-based, human
# [1] = test system: fibrin polymerization in whole blood; experiment: Sonorheometry of whole blood: coagulation plasma factors and fibrin polymerization (GPRP titration); settings: kaolin-activated citrated whole blood, 5 volunteers; GPRP 0, 1, 2, 4, 8 mM
# Experimental: (§1) Blood samples were obtained from a peripheral vein of the arm of a patient into six 1.8 ml Vacutainers™ (Becton Dickinson, Franklin Lakes, N.J.) containing 3.2% (0.105M) sodium citrate to prevent coagulation within the tubes. The first tube was discarded, while the remaining tubes were placed on a rocker table and analyzed sequentially starting thirty minutes after the draw. For all the experiments described here, samples were obtained from a total of eight volunteers (four male and four female) with age range of twenty-three to thirty years (mean and standard deviation of 25.75±3.3 years) and with no history of thrombotic or hemorrhagic disorders. Ultrasound pulses having 10 Mhz center frequency were applied, PRF was adaptively adjusted with the range of about 25 Hz to about 12.8 kHz. Automated measurements having a one second acquisition time were performed every six seconds.
# (§2) In a typical experiment, 1 ml of citrated blood was pipetted into a 4 ml clear polystyrene cuvette 142 along with 0.5 mg of kaolin activator to start coagulation through activation of the intrinsic pathway and 62 μl of 0.2M CaCl2 to reverse the anticoagulant effect of the sodium citrate. Other reagents were also added as required by the specific study performed. Phosphate Buffer Saline (PBS) solution was added to maintain identical blood dilution. Sonorheometry data acquisition was initiated one minute after all the reagents were pipetted into the sample, and measurements were performed every six seconds.
# Gly-Pro-Arg-Pro (GPRP) was obtained from Calbiochem (EMD Chemicals Inc., Gibbstown, N.J.) with 99.1% purity as determined by HPLC. GPRP was dissolved in PBS into 100 mM stock. Kaolin was obtained in powder form (Sigma Aldrich, St. Louis, Mo.) and suspended in sterile sodium chloride solution (Becton Dickinson, Franklin Lakes, N.J.). Monoclonal antibody abciximab (ReoPro®, Eli Lilly and Company, Indianapolis, Ind.) was obtained in a concentration of 2 mg/ml. The original solution was diluted by a factor of five by adding 200 μL of PBS into 50 μl of the original ReoPro solution. The serine protease abbokinase (urokinase-type Plasminogen Activator, or uPA, Hyphen Biomed, Neuville-sur-Oise, France) was obtained in a concentration of 1 unit/μl.
# (§3) The raw ultrasound data were transferred from the custom PCB 110 to the laptop computer 150 through USB interface 112 and analyzed in MATLAB (MathWorks Inc., Natick, Mass.). […]
# (§4) The sonorheometry parameters were calculated by fitting values 20 T to a sigmoidal curve 602 and evaluating the first derivative 30 of the curve 602, as shown in FIG. 8. For example, the clotting times TC1 and TC2 were calculated based on a threshold value of the derivative curve (20% of the minimum value), whereas the clotting slope CFR is the minimum of the derivative curve. […]
# [2] = test system: platelet aggregation in whole blood; experiment: Sonorheometry of whole blood: assessment of platelet function (abciximab titration)
# Experimental: as §1
# as §2, with “Sonorheometry data acquisition was initiated one minute after all the reagents were pipetted into the sample, and measurements were performed every six seconds.” left out
# (§5) Gly-Pro-Arg-Pro (GPRP) was obtained from Calbiochem (EMD Chemicals Inc., Gibbstown, N.J.) with 99.1% purity as determined by HPLC. […]
# as §3, §4
# [3] = test system: fibrinolysis of whole blood clot; experiment: Sonorheometry of whole blood: assessment of fibrinolytic proteins (urokinase titration); settings: urokinase 0, 100, 150, 200 Units per ml of blood
# Experimental: as §1
# as §2, with “Sonorheometry data acquisition was initiated one minute after all the reagents were pipetted into the sample, and measurements were performed every six seconds.” left out
# as §5, §3, §4
# [4] = kaolin-activated citrated whole blood
substance,measurement,setting,value
Gly-Pro-Arg-Pro [GPRP],clot formation rate CFR (rate of fibrin polymerization),[1],decreased
same,final clotting time TC2,[1],increase with the concentration of GPRP
same,initial clotting time TC1,[1],increase with the concentration of GPRP
same,stiffness S (final stiffness of the formed clot),[1],decreased
abciximab: monoclonal antibody; inhibitor of platelet aggregation blocking the IIb/IIIa receptor,other parameters describing the dynamics of clot formation and dissolution,"[2]; abciximab 0, 2, 4, 6, 8, 12 μg/ml",did not change significantly
same,variation of final clot stiffness across the concentrations used,[2]; abciximab 0 to 12 μg/ml,varied by over one order of magnitude
same,stiffness SMAX,"[2]; kaolin-activated citrated whole blood, five individuals, abciximab 0, 2, 4, 6, 8, 12 μg/ml",reduces the stiffness SMAX yielding a softer clot
urokinase,clot lysis time TL1,[3]; [4],decreased as a function of urokinase concentration
same,clot lysis time TL2,[3]; [4],decreased as a function of urokinase concentration
same,return of blood sample to a viscous fluid (clot dissolution),[3],returned to a viscous fluid significantly faster with increasing concentrations of urokinase; also recorded: rapidly dissolved the blood clot and restored the original mechanical conditions prior to clot formation
